“Also recorded” adds a separate entry of the source.
What was measured:
bEND3 cells [1] = assay: OGD-induced occludin degradation in bEND3 cells, Western blot of total cellular extracts; type: cell-based, Mouse
Method: (§1) Cell culture. Mouse brain microvascular endothelial cells bEND3 (American Type Culture Collection) were grown as a monolayer in DMEM with 15% fetal bovine serum (FBS), 100 U/ml penicillin and 100 μg/ml streptomycin at 37° C. in a humidified incubators with 5% CO2 and 95% room air. The cells were subcultured into 60 mm dishes coated with type I collagen (Nakamuta et al., 2005) and allowed to grow to confluence before exposure to OGD for 2 h. After OGD treatment, cell toxicity was measured by lactate dehydrogenase (LDH) assay using a CytoTox 96 Non-Radioactive Cytotoxicity Assay Kit (Promega). Besides endothelial cells, we also tested the effect of OGD on MMP-2/9 secretion in two mouse neural cell lines, C8-D1A (astrocyte) and […]. Both cell lines were purchased from American Type Culture Collection. C8-D1A cells and SH-SY5Y cells were cultured in DMEM or DMEM/F12 (1:1) (Sigma) containing 10% FBS, 100 U/ml penicillin and 100 μg/ml streptomycin, respectively. These cells were allowed to grow to 80-90% confluence before exposure to 2-h OGD treatment.
(§2) OGD treatment. To mimic acute ischemia-like conditions in vitro, bEND3 cells were exposed to OGD for 2 h as we described previously (Furuichi et al., 2005). […] The oxygen concentration was below 0.2% as monitored by an oxygen analyzer (Sable Systems). […]

bEND3 cells [2] = assay: Immunostaining of occludin in OGD-treated bEND3 cells (confocal); type: cell-based, Mouse
Method: as §1, §2

bEND3 cells [3] = assay: OGD-induced claudin-5 redistribution between subcellular fractions, Western blot; type: cell-based, Mouse; conditions: SB-3CT, 2 h OGD; Western blot of subcellular fractions
Method: OGD treatment. To mimic acute ischemia-like conditions in vitro, bEND3 cells were exposed to OGD for 2 h as we described previously (Furuichi et al., 2005). In brief, confluent bEND3 cells were subjected to an ischemic injury by transferring cultures to glucose free medium (DMEM without glucose) pre-equilibrated with 95% N2 and 5% CO2. Cells were then incubated in a humidified airtight chamber (Billups-Rothberg Inc.) equipped with an air lock and flushed with 95% N2 and 5% CO2 for 15 min. The chamber was then sealed and kept at 37° C. for another 105 min. The oxygen concentration was below 0.2% as monitored by an oxygen analyzer (Sable Systems). Control cultures were incubated with normal DMEM medium without FBS for 2 h at 37° C. in 95% air and 5% CO2. Immediately after OGD treatment, the conditioned media (CM) and cells were collected separately for further analyses.
Preparation of total cell lysate, subcellular fractions. To reveal a redistribution of MMP-2/9, Caveolin-1 (Cav-1) and TJ proteins in OGD-treated bEnd3 cells, three subcellular fractions including membranous, cytosolic, and cytoskeletal fractions were extracted using ProteoExtract Subcellular Proteome Extraction Kit (Calbiochem) according to manufacturer's instruction. […]

occludin = target: T1, occludin (UniProt Q61146)
T1 sequence: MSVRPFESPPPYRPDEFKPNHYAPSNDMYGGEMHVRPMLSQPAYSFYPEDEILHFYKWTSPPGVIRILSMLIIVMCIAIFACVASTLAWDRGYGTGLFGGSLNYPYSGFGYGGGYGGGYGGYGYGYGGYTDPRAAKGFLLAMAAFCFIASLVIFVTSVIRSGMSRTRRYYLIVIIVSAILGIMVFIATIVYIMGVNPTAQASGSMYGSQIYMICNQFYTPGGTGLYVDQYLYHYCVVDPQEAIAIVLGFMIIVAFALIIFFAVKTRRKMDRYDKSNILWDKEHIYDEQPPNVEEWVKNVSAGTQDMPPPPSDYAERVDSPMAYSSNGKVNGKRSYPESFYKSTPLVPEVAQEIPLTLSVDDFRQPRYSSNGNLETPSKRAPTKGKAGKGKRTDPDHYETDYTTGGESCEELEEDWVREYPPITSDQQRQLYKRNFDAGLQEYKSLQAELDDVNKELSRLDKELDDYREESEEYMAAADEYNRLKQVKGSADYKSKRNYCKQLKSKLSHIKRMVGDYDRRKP

[4] = tPA thrombolysis, cited from earlier work

Molecule: O=S(=O)(CC1CS1)c1ccc(Oc2ccccc2)cc1 (centres unmarked) [SB-3CT]
- OGD-induced occludin degradation (occludin protein in total cellular extracts) (bEND3 cells [1]; SB-3CT 10 μM, 2 h before and during 2 h OGD, Western blot, vs vehicle (DMSO) plus OGD): completely abolished OGD-induced occludin reduction; also recorded: completely inhibited OGD-induced occludin degradation
- occludin level in control (non-OGD) bEND3 cells (bEND3 cells [1]; SB-3CT-treated control cells compared to vehicle-treated cells (DMSO)): slight increase (not statistically significant) in occludin level
- occludin immunostaining reduction in OGD-treated cells (bEND3 cells [2]; SB-3CT pretreatment, 2 h OGD, confocal microscopy): completely inhibited occludin reduction in OGD-treated cells
- occludin immunostaining in control cells (bEND3 cells [2]; SB-3CT-treated control cells vs vehicle-treated control cells): slight stronger immunostaining (brighter fluorescence) for occludin
- OGD-induced claudin-5 redistribution between subcellular fractions (bEND3 cells [3]): had no effect on its redistribution between subcellular fractions; also recorded: had no effect on OGD-induced claudin-5 redistribution

Molecule: active MMP-9
- occludin degradation in bEND3 extracts (occludin): active MMP-9-induced occludin degradation

Molecule: tPA: tissue plasminogen activator, the only FDA-approved therapy for acute ischemic stroke
- mortality rate in stroke patients who have such bleeding ([4]; patients with symptomatic ICH): 50%
- increase in the incidence of symptomatic ICH ([4]; stroke patients): 10 fold

Reference: patent US10591491B1, “Blood biomarker for early blood brain barrier disruption in ischemic stroke” (STC.UNM, priority 2011, dated 2020)
